Reference: PubChem BioAssay AID504468 (NMMLSC, 2011)
Active and inactive are the calls of the source.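 Rule for the calls: active = compounds with a fitted EC50 of 33 micromolar or lower for the MEP2 GFP signal; inactive = the rest.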

Key:
[1] = MEP2-GFP expression modulation in yeast, dose response, flow cytometry, kMESF, KU SAR set 2 (AID 504468); conditions: S. cerevisiae MEP2-GFP strain, flow cytometry fluorescence, 3 h
[2] = tested on: S. cerevisiae MEP2-GFP strain, flow cytometry fluorescence, 3 h; assay: as above

With `Cc1cc(Nc2cc(Nc3ccccc3)nc(NCc3ccccc3)n2)n[nH]1` the GFP fluorescence (kMESF) ([1]; at 300 µM (top of the series)) was 2.46 kMESF (inactive).
In the case of `CNc1nc(NC)c([N+](=O)[O-])c(Nc2cccc(Cl)c2)n1`, the GFP fluorescence (kMESF) ([1]; at 100 µM (top of the series)) is reported as 4.45 kMESF (inactive).
With `COc1cccc(-c2cc(Nc3cc(C)[nH]n3)nc(NCc3ccccc3)n2)c1` the GFP fluorescence (kMESF) ([1]; at 300 µM (top of the series)) was 2.66 kMESF (inactive).
For `CNc1nc(N)c([N+](=O)[O-])c(Nc2cccc(Oc3ccccc3)c2)n1`, the EC50 [2] was 34.2 µM (inactive).
For `CNc1nc(N)c([N+](=O)[O-])c(Nc2ccccc2F)n1`, the GFP fluorescence (kMESF) ([1]; at 100 µM (top of the series)) was 4.66 kMESF (inactive).
With `CNc1nc(N)cc(Oc2cccc(Cl)c2)n1` the GFP fluorescence (kMESF) ([1]; at 300 µM (top of the series)) was 2.25 kMESF (inactive).
For `CNc1nc(N)cc(Nc2cccc(Cl)c2)n1`, the GFP fluorescence (kMESF) ([1]; at 300 µM (top of the series)) was 2.73 kMESF (inactive).
In the case of `CNc1nc(N)c(C(=O)c2ccc(C)c(C)c2)c(Nc2cccc(Cl)c2)n1`, the GFP fluorescence (kMESF) ([1]; at 100 µM (top of the series)) is reported as 4.45 kMESF (inactive).
For `CCOC(=O)c1c(N)nc(NC)nc1Nc1cccc(F)c1`, the EC50 [2] was 81.8 µM (inactive).
With `CNc1nc(N)c([N+](=O)[O-])c(Nc2cccc(OC)c2)n1` the GFP fluorescence (kMESF) ([1]; at 100 µM (top of the series)) was 7.13 kMESF (inactive).
In the case of `COC(=O)c1cccc(-c2cc(Nc3cc(C)[nH]n3)nc(NCc3ccccc3)n2)c1`, the GFP fluorescence (kMESF) ([1]; at 300 µM (top of the series)) is reported as 2.46 kMESF (inactive).
For `CNc1nc(N)c([N+](=O)[O-])c(Nc2ccccc2Br)n1`, the GFP fluorescence (kMESF) ([1]; at 100 µM (top of the series)) was 4.59 kMESF (inactive).
In the case of `CCNc1nc(NC2CCCCC2)c([N+](=O)[O-])c(N2CCOCC2)n1`, the EC50 [2] is reported as 189 µM (inactive).
For `CNc1nc(N)cc(Nc2ccccc2F)n1`, the GFP fluorescence (kMESF) ([1]; at 300 µM (top of the series)) was 2.73 kMESF (inactive).
For `CCNc1nc(N)c([N+](=O)[O-])c(Nc2cccc(Cl)c2)n1`, the GFP fluorescence (kMESF) ([1]; at 100 µM (top of the series)) was 12 kMESF (inactive).
In the case of `COc1ccccc1-c1cc(Nc2cc(C)[nH]n2)nc(NCc2ccccc2)n1`, the GFP fluorescence (kMESF) ([1]; at 300 µM (top of the series)) is reported as 2.59 kMESF (inactive).
For `Cc1cc(Nc2cc(-c3ccccc3)nc(NCc3ccccc3)n2)n[nH]1`, the EC50 [2] was 107 µM (inactive).
In the case of `CNc1nc(N)c([N+](=O)[O-])c(Nc2cccc(Br)c2)n1`, the GFP fluorescence (kMESF) ([1]; at 100 µM (top of the series)) is reported as 7.2 kMESF (inactive).
For `O=[N+]([O-])c1c(NC2CCCCC2)nc(NCc2ccccc2)nc1N1CCOCC1`, the GFP fluorescence (kMESF) ([1]; at 300 µM (top of the series)) was 2.32 kMESF (inactive).
